# Measurements from paper PMC6199492, “Comprehensive Characterization of Toxoplasma Acyl Coenzyme A-Binding Protein TgACBP2 and Its Critical Role in Parasite Cardiolipin Metabolism” (mBio, 2018).
# Molecular target: T1, TgACBP2 (Toxoplasma gondii, UniProt A0A7J6JZP9)
# T1 construct: gene TGRH88_042420; recombinant TgACBP2 with C-terminal GST tag (tag kept), expressed in E. coli and purified; native HA-tagged protein ~36 kDa
# T1 sequence (A0A7J6JZP9 1-311): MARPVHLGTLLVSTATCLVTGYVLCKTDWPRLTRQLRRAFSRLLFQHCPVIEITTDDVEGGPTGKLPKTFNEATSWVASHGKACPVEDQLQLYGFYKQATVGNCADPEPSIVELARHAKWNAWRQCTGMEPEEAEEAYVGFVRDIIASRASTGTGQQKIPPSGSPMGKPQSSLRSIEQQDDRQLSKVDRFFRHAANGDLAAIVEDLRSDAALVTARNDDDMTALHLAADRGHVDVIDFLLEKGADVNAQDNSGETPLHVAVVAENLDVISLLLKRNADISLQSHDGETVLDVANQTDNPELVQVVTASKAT
# Experiment: fluorescence increase of NBD ligand upon binding, microplate reader
# Settings: labelled compound; 0.1 μM TgACBP2-GST, 0-0.25 μM ligand, PBS, room temperature, 5 min; ex 460 nm, em 540 nm; read-out: K (binding constant)
substance,measurement,value
NBD-C16:0-CoA,Kd,136 nM
